Target: GTP-binding protein Rheb (Homo sapiens, UniProt Q15382)
Assay: In Vitro Kinase Assay: For the Rheb-dependent in vitro kinase assay, HA-GST-Rheb was first loaded with GTP-γ-S (Millipore #20-176) by incubating 600 ng/μL Rheb with 10 mM EDTA and 0.4 mM GTP-γ-S at 30° C. for 10 minutes. MgCl2 was added to a final concentration of 20 mM to stop the reaction. This mixture was used at 20× in the kinase assay.Loaded HA-GST-Rheb was then incubated with compound (final DMSO concentration 1%) for 30 minutes at room temperature. mTORC1, GFP-4E-BP1 substrate (Life Technologies #PV4759), and kinase assay buffer (HEPES pH 7.4, KCl, MgCl2) were added to the Rheb-compound mixture and incubated at room temperature for 20 minutes. ATP was then added, and the kinase reaction proceeded at 30° C. for 45 min before being stopped by the addition of SDS-PAGE loading buffer for Westerns or 10 mM EDTA for the LanthaScreen readout. During the kinase reaction, the final concentration of reagents is as follows: Rheb—30 ng/μL, compound—variable, GTPγS—0.02 mM, EDTA—0.5 mM, MgCl2—1 mM, mTORC1—fixed volume of prep (molarity unknown), GFP-4E-BP1 substrate—15 ng/μL, ATP—0.5 mM. For LanthaScreen analysis (Thermo Fisher #PV4757), the manufacturer's instructions were followed and conditions were optimized for the amount of Rheb and mTORC1. The final concentration of reagents was as follows: 100 nM loaded HA-GST-Rheb, compound (variable), 0.5 mM EDTA, 10 mM MgCl2, 25 mM HEPES pH 7.4, 50 mM KCl, mTORC1 (fixed volume—0.1 μL in 10 μL total volume), 0.4 μM GFP-4E-BP1 substrate, 0.5 mM ATP. Results were read on an EnVision reader (PerkinElmer) using 495ex/520em filters (Life Technologies, #PV00315).

GTP-binding protein Rheb, sequence (Q15382 whole entry): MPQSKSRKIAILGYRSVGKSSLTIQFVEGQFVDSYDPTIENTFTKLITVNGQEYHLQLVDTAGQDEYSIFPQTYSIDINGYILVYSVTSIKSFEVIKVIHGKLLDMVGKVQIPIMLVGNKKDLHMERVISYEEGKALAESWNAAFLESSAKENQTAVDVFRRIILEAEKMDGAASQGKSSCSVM

SMILES | IC50
OCc1cc2c(Sc3ccc(Cl)cc3Cl)cc(Cl)cc2[nH]1 | < 10 µM
CN1CCCN(c2ccc(NC(=O)c3cc4c(-c5cc(Cl)cc(Cl)c5)cc(Cl)cc4[nH]3)cc2F)CC1 | < 10 µM
O=C(O)c1cc2c(Sc3ccc(C(F)(F)F)cc3)cc(Cl)cc2[nH]1 | < 10 µM

Results, then the compound that gave them:

IC50 | SMILES
< 10 µM | Cc1cc(C(C)(C)C)ccc1Sc1cc(Cl)cc2[nH]c(CO)cc12
< 10 µM | Cc1cc(C(C)(C)C)ccc1Sc1cc(Cl)cc2[nH]c(C(=O)O)cc12

Reference: ChEMBL document CHEMBL5729117, “Heteroaryl Rheb inhibitors and uses thereof” (2022)
